Assay results from US10287255B2, “Compounds as histone deacetylase 6 inhibitors and pharmaceutical compositions comprising the same” (CHONG KUN DANG PHARMACEUTICAL CORP., priority 2014, dated 2019).

Key:
human recombinant HDAC6 = biological target: T1, human recombinant HDAC6 (Homo sapiens, UniProt Q9UBN7); experiment: HDAC6 enzyme activity inhibition assay (in vitro, fluorimetric); assay type: biochemical; settings: for HDAC6 selectivity (fold): HDAC6 selectivity over HDAC1; for IC50: human recombinant HDAC6, fluorimetric kit, same protocol as HDAC1
T1 construct: purchased Calbiochem 382180
T1 sequence (Q9UBN7 1-1215): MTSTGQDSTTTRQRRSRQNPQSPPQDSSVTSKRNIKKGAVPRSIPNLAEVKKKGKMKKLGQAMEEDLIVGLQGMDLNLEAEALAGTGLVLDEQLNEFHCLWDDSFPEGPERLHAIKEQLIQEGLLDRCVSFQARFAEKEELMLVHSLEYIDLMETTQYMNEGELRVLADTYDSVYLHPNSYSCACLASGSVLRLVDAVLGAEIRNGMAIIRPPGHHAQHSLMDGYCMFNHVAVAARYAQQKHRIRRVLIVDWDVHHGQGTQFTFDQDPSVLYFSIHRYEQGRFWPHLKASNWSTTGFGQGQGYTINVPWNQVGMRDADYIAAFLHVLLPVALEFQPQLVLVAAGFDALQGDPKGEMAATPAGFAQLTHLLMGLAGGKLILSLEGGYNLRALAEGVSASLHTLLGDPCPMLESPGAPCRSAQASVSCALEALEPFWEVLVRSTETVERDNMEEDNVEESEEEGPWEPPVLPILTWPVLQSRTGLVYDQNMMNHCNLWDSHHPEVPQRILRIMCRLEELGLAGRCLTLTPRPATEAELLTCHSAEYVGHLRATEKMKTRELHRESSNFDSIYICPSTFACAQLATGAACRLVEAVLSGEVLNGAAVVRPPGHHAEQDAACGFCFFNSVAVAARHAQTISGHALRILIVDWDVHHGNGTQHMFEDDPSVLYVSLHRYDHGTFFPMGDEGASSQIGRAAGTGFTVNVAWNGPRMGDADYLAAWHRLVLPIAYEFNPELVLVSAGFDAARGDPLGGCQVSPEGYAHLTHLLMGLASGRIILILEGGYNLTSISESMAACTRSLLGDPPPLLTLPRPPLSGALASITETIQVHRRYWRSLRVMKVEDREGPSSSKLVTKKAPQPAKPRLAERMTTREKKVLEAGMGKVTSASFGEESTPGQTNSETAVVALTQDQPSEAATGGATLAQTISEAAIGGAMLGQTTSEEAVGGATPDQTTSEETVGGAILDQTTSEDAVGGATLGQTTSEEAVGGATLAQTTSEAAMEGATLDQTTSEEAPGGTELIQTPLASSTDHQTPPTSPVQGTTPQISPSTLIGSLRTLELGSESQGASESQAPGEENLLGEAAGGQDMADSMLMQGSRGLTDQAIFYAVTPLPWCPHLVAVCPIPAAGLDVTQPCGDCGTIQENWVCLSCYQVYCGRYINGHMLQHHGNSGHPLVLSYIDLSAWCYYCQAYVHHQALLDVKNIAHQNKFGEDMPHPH
Procedure, shortened: (§1)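 IC50 values derive from fluorescence (Ex 360, Em 460) after developer treatment (30 min) of reactions of recombinant human HDAC1 or HDAC6 with 10 μM Fluor de Lys-SIRT1 substrate (60 min, 30 °C). Compounds were serially diluted 5-fold; 0.3 μg enzyme was used for HDAC1, with HDAC6 tested identically.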

human recombinant HDAC1 = biological target: T2, human recombinant HDAC1 (Homo sapiens, UniProt Q13547); experiment: HDAC1 enzyme activity inhibition assay (in vitro, fluorimetric); assay type: biochemical; settings: human recombinant HDAC1, fluorimetric kit, 30° C. 60 minutes
T2 construct: purchased Enzo Life Science BML-SE456
Procedure, shortened: as §1

T2 sequence (Q13547 whole entry): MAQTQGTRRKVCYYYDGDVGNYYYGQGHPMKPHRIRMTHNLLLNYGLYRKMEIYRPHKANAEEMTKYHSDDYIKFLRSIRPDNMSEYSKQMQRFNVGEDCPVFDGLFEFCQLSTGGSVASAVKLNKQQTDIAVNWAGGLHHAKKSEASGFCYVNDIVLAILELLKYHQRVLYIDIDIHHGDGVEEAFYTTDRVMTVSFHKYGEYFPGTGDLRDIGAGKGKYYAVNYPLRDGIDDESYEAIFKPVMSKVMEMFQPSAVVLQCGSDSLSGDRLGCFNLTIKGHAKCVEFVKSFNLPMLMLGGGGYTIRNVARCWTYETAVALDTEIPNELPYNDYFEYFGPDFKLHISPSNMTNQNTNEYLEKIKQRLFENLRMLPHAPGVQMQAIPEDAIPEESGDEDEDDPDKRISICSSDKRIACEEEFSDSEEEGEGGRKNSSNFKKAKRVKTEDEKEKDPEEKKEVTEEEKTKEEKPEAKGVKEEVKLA

Row | SMILES | HDAC6 selectivity (fold) (human recombinant HDAC6) | IC50 (human recombinant HDAC6) [nM] | IC50 (human recombinant HDAC1) [nM]
1 | CC(C)N1CC=C(c2ccccc2CN2[C@H](C)CN(Cc3ccc(C(=O)NO)cc3)C[C@@H]2C)CC1 [Compound 484, N-hydroxy-4-(((3R,5S)-4-(2-(1-isopropyl-1,2,3,6-tetrahydropyridin-4-yl)benzyl)-3,5-dimethylpiperazin-1-yl)methyl)benzamide] | 151 | 130 | 19600
2 | CC(C)CCN1[C@H](C)CN(Cc2ccc(C(=O)NO)cc2)C[C@@H]1C [Compound 270, N-hydroxy-4-(((3R,5S)-4-isopentyl-3,5-dimethylpiperazin-1-yl)methyl)benzamide] | >5 | 2220 | > 10000
3 | CCCCN(C(=O)N1C[C@@H](C)N(Cc2ccc(C(=O)NO)cc2)[C@@H](C)C1)c1ccccc1 [Compound 198, (3R,5S)-N-butyl-4-(4-(hydroxycarbamoyl)benzyl)-3,5-dimethyl-N-phenylpiperazine-1-carboxamide] | 51 | 241 | 12200
4 | C[C@@H]1CN(Cc2ccc(/C=C/C(=O)NO)cc2)C[C@H](C)N1C(=O)Nc1cccc(-n2cccc2)c1 [Compound 321, (2S,6R)-N-(3-(1H-pyrrol-1-yl)phenyl)-4-(4-((E)-3-(hydroxyamino)-3-oxoprop-1-en-1-yl)benzyl)-2,6-dimethylpiperazine-1-carboxamide] | 8 | 125 | 1100
5 | CC(C)CCN1C[C@@H](C)N(Cc2ccc(C(=O)NO)cc2)[C@@H](C)C1 [Compound 271, N-hydroxy-4-(((2S,6R)-4-isopentyl-2,6-dimethylpiperazin-1-yl)methyl)benzamide] | <13 | > 1000 | 12500
6 | C[C@@H]1CN(C(=O)Cc2cccc(C3=CCOCC3)c2)C[C@H](C)N1Cc1ccc(C(=O)NO)cc1 [Compound 252, 4-(((2S,6R)-4-(2-(3-(3,6-dihydro-2H-pyran-4-yl)phenyl)acetyl)-2,6-dimethylpiperazin-1-yl)methyl)-N-hydroxybenzamide] | 79 | 221 | 17500
7 | C[C@@H]1CN(C(=O)N(C)c2ccccc2)C[C@H](C)N1Cc1ccc(C(=O)NO)cc1 [Compound 196, (3R,5S)-4-(4-(hydroxycarbamoyl)benzyl)-N,3,5-trimethyl-N-phenylpiperazine-1-carboxamide] | 97 | 148 | 14400
8 | C[C@@H]1CN(Cc2ccc(C(=O)NO)cc2)C[C@H](C)N1Cc1cccc(OCC2CCN(CC(C)(C)F)CC2)c1 [Compound 380, 4-(((3R,5S)-4-(3-((1-(2-fluoro-2-methylpropyl)piperidin-4-yl)methoxy)benzyl)-3,5-dimethylpiperazin-1-yl)methyl)-N-hydroxybenzamide] | >62 | 162 | > 10000
9 | C[C@@H]1CN(Cc2ccc(C(=O)NO)cc2)C[C@H](C)N1Cc1cccc(CN2CCCC2)c1 [Compound 427, 4-(((3R,5S)-3,5-dimethyl-4-(3-(pyrrolidin-1-ylmethyl)benzyl)piperazin-1-yl)methyl)-N-hydroxybenzamide] | 40 | 152 | 6000
10 | C[C@@H]1CN(C(=O)c2ccccc2)C[C@H](C)N1Cc1ccc(C(=O)NO)cc1 [Compound 080, 4-(((2S,6R)-4-benzoyl-2,6-dimethylpiperazin-1-yl)methyl)-N-hydroxybenzamide] | 37 | 179 | 6600
11 | CC(c1ccccc1)N1C[C@@H](C)N(Cc2ccc(C(=O)NO)cc2)[C@@H](C)C1 (stereo partly drawn) [Compound 220, 4-(((2S,6R)-2,6-dimethyl-4-(1-phenylethyl)piperazin-1-yl)methyl)-N-hydroxybenzamide] | 13 | 1230 | 15900
12 | C[C@@H]1CN(C(=O)c2cccc(CN3CCCC3)c2)C[C@H](C)N1Cc1ccc(/C=C/C(=O)NO)cc1 [Compound 480, (E)-3-(4-(((2S,6R)-2,6-dimethyl-4-(3-(pyrrolidin-1-ylmethyl)benzoyl)piperazin-1-yl)methyl)phenyl)-N-hydroxyacrylamide] | 2 | 467 | 1000
13 | C[C@@H]1CN(Cc2ccc(C3=CCC(C)(C)CC3)cc2)C[C@H](C)N1Cc1ccc(C(=O)NO)cc1 [Compound 400, 4-(((2S,6R)-4-((4′,4′-dimethyl-2′,3′,4′,5′-tetrahydro-[1,1′-biphenyl]-4-yl)methyl)-2,6-dimethylpiperazin-1-yl)methyl)-N-hydroxybenzamide] | 4 | 2820 | 11300

These reach a lower IC50 (human recombinant HDAC6). Values come first.

Row | HDAC6 selectivity (fold) (human recombinant HDAC6) | IC50 (human recombinant HDAC6) [nM] | IC50 (human recombinant HDAC1) [nM] | SMILES
14 | 153 | 106 | 16200 | C[C@@H]1CN(Cc2ccc(C(=O)NO)cc2)C[C@H](C)N1Cc1ccccc1C1=CCN(S(C)(=O)=O)CC1 [Compound 481, 4-(((3R,5S)-3,5-dimethyl-4-(2-(1-(methylsulfonyl)-1,2,3,6-tetrahydropyridin-4-yl)benzyl)piperazin-1-yl)methyl)-N-hydroxybenzamide]
15 | 9 | 82 | 700 | C[C@@H]1CN(C(=O)Nc2cccc(Cl)c2)C[C@H](C)N1Cc1ccc(C(=O)NO)cc1 [Compound 104, (3R,5S)-N-(3-chlorophenyl)-4-(4-(hydroxycarbamoyl)benzyl)-3,5-dimethylpiperazine-1-carboxamide]
16 | 76 | 74 | 5600 | C[C@@H]1CN(Cc2ccc(C(=O)NO)cc2)C[C@H](C)N1C(=O)C(C)(C)C [Compound 292, 4-(((3R,5S)-3,5-dimethyl-4-pivaloylpiperazin-1-yl)methyl)-N-hydroxybenzamide]
17 | 24 | 55 | 1300 | COc1ccc(C(=O)N2[C@H](C)CN(Cc3ccc(C(=O)NO)cc3)C[C@@H]2C)cc1 [Compound 291, N-hydroxy-4-(((3R,5S)-4-(4-methoxybenzoyl)-3,5-dimethylpiperazin-1-yl)methyl)benzamide]
18 | 109 | 33 | 3600 | C[C@@H]1CN(Cc2ccc(C(=O)NO)cc2)C[C@H](C)N1C(=O)Nc1ccccc1 [Compound 159, (2S,6R)-4-(4-(hydroxycarbamoyl)benzyl)-2,6-dimethyl-N-phenylpiperazine-1-carboxamide]
19 | – | 23 | 11900 | C[C@@H]1CN(Cc2ccc(C(=O)NO)cc2)C[C@H](C)N1Cc1ccccc1 [Compound 084, 4-(((3R,5S)-4-benzyl-3,5-dimethylpiperazin-1-yl)methyl)-N-hydroxybenzamide]
20 | 35 | 19 | 700 | C[C@@H]1CN(Cc2ccc(C(=O)NO)cc2)C[C@H](C)N1Cc1ccc(CN2CCCC2)cc1 [Compound 466, 4-(((3R,5S)-3,5-dimethyl-4-(4-(pyrrolidin-1-ylmethyl)benzyl)piperazin-1-yl)methyl)-N-hydroxybenzamide]
21 | >769 | 13 | > 10000 | C[C@@H]1CN(Cc2ccc(C(=O)NO)cc2)C[C@H](C)N1Cc1ccc(CN2CCN(Cc3ccccc3)CC2)cc1 [Compound 413, 4-(((3R,5S)-4-(4-((4-benzylpiperazin-1-yl)methyl)benzyl)-3,5-dimethylpiperazin-1-yl)methyl)-N-hydroxybenzamide]
22 | 5540 | 2 | 11100 | C[C@@H]1CN(Cc2ccc(C(=O)NO)cc2)C[C@H](C)N1Cc1cccc(Cl)c1 [Compound 128, 4-(((3R,5S)-4-(3-chlorobenzyl)-3,5-dimethylpiperazin-1-yl)methyl)-N-hydroxybenzamide]
